# Reference: patent US5712297A, “Piperdine compounds and their preparation and use” (Novo Nordisk A/S, priority 1989, dated 1998)
# Target: muscarinic acetylcholine receptors
# Assay: Inhibition of specific binding of 3H-Oxotremorine-M (3H-Oxo)
# Parameters: species or system rat (male Wistar
# Conditions: rat cortex; 3H-Oxotremorine 1.0 nM; 20 mM Hepes pH 7.4; 30 min at 25° C.
# Experimental: The pharmacological properties of the compounds of the present invention (Formula I) can be illustrated by determining their capability to inhibit the specific binding of ^3 H-Oxotremorine-M (^3 H-Oxo).
# ^3 H-Oxo labels muscarinic receptors in the CNS (with a preference for agonist domaines of the receptors). Three different sites are labelled by 3H-Oxo. These sites have affinity of 1.0, 20 and 3000 nM, respectively. Using the present experimental conditions only the high and medium affinity sites are determined. The inhibitory effects of compounds on ^3 H-Oxo binding reflects the affinity for muscarinic acetylcholine receptors.
# All preparations are performed at 0°-4° C. unless otherwise indicated. Fresh cortex (0.1-1 g) from male Wistar rats (150-250 g) is homogenized for 5-10 s in 10 ml 20 mM Hepes pH: 7.4, with an Ultra-Turrax homogenizer. The homogenizer is rinsed with 10 ml of buffer and the combined suspension centrifuged for 15 min at 40,000×g. The pellet is washed three times with buffer. In each step the pellet is homogenized as before in 2×10 ml of buffer and centrifuged for 10 min at 40,000×g. The final pellet is homogenized in 20 mM Hepes pH: 7.4 (100 ml per g of original tissue) and used for binding assay. Aliquots of 0.5 ml is added 25 μl of test solution and 25 μl of ^3 H-Oxotremorine (1.0 nM, final concentration) mixed and incubated for 30 min at 25° C. Non-specific binding is determined in triplicate using Arecoline (1 μg/ml, final concentration) as the test substance. After incubation samples are added 5 ml of ice-cold buffer and poured directly onto Whatman GF/C glass fiber filters under suction and immediately washed 2 times with 5 ml of ice-cold buffer. The amount of radioactivity on the filters are determined by conventional liquid scintillation counting. Specific binding is total binding minus non-specific binding. Test substances are dissolved in 10 ml water (if necessary heated on a steam-bath for less than 5 minutes) at a concentration of 2.2 mg/ml. 25-75% inhibition of specific binding must be obtained before calculation of IC50.
# The test value will be given as IC50 (the concentration (ng/ml) of the test substance which inhibits the specific binding of ^3 H-Oxo by 50%). [formula] where Co is specific binding in control assays and Cx is the specific binding in the test assay. (The calculations assume normal mass-action kinetics).
row,Inhibition in vitro OXO BINDING (IC50: concentration which inhibits the specific binding of 3H-Oxo by 50%),SMILES
1,1.4 ng/mL,"CCC/C=C\COc1nsnc1C1=CCCN(C)C1.O=C(O)C(=O)O [Compound 32, cis-3-(4-(2-hexenyloxy)-1,2,5-thiadiazol-3-yl)-1,2,5,6-tetrahydro-1-methylpyridine oxalate]"
2,0.6 ng/mL,"CCC/C=C/COc1nsnc1C1=CCCN(C)C1.O=C(O)C(=O)O [Compound 35, trans-3-(4-(2-hexenyloxy)-1,2,5-thiadiazol-3-yl)-1,2,5,6-tetrahydro-1-methylpyridine oxalate]"
3,0.3 ng/mL,"CN1CCC=C(c2cnsn2)C1.O=C(O)C(=O)O [Compound 36, 3-(1,2,5-thiadiazol-3-yl)-1,2,5,6-tetrahydro-1-methylpyridine oxalate]"
4,6.3 ng/mL,"CCCCCCOc1nsnc1C1=CCCNC1.O=C(O)C(=O)O [Compound 37, 1,2,5,6-tetrahydro-3-(4-hexyloxy-1,2,5-thiadiazol-3-yl) pyridine oxalate]"
5,7.4 ng/mL,"COCCOCCOc1nsnc1C1=CCCN(C)C1.O=C(O)C(=O)O [Compound 38, 3-(4-(2-(2-methoxyethoxy)ethoxy)-1,2,5-thiadiazol-3-yl)-1,2,5,6-tetrahydro-1-methylpyridine oxalate]"
6,3.7 ng/mL,"CCOCCOc1nsnc1C1=CCCN(C)C1.O=C(O)C(=O)O [Compound 40, 3-(4-(2-ethoxyethoxy)-1,2,5-thiadiazol-3-yl)-1,2,5,6-tetrahydro-1-methylpyridine oxalate]"
7,4.0 ng/mL,"CCOCCOCCOc1nsnc1C1=CCCN(C)C1.O=C(O)C(=O)O [Compound 43, 3-(4-(2-(2-ethoxyethoxy)ethoxy)-1,2,5-thiadiazol-3-yl)-1,2,5,6-tetrahydro-1-methylpyridine oxalate]"
8,14 ng/mL,"CC1CCN(c2nsnc2C2=CCCN(C)C2)CC1.O=C(O)C(=O)O [Compound 44, 3-(4-(4-methylpiperidino)-1,2,5-thiadiazol-3-yl)-1,2,5,6-tetrahydro-1-methylpyridine oxalate]"
9,115 ng/mL,"CN1CCC=C(c2nsnc2N2CCOCC2)C1 [Compound 45, 3-(4-morpholino-1,2,5-thiadiazol-3-yl)-1,2,5,6-tetrahydro-1-methylpyridineoxalate]"
10,18 ng/mL,"CCCCCCNc1nsnc1C1=CCCN(C)C1 [Compound 46, 3-(4-hexylamino-1,2,5-thiadiazol-3-yl)-1,2,5,6-tetrahydro-1-methylpyridineoxalate]"
11,0.3 ng/mL,"CCCSc1nsnc1C1=CCCN(C)C1 [Compound 47, 3-(4-propylthio-1,2,5-thiadiazol-3-yl)-1,2,5,6-tetrahydro-1-methylpyridineoxalate]"
12,0.6 ng/mL,"CCCCSc1nsnc1C1=CCCN(C)C1.O=C(O)C(=O)O [Compound 48, 3-(4-butylthio-1,2,5-thiadiazol-3-yl)-1,2,5,6-tetrahydro-1-methylpyridine oxalate]"

row,SMILES,Inhibition in vitro OXO BINDING (IC50: concentration which inhibits the specific binding of 3H-Oxo by 50%)
1,"CCCCOCCOc1nsnc1C1=CCCN(C)C1.O=C(O)C(=O)O [Compound 41, 3-(4-(2-butoxyethoxy)-1,2,5-thiadiazol-3-yl)-1,2,5,6-tetrahydro-1-methylpyridine oxalate]",1.3 ng/mL
2,"CCCCOCCOCCOc1nsnc1C1=CCCN(C)C1.O=C(O)C(=O)O [Compound 42, 3-(4-(2-(2-butoxyethoxy)ethoxy)-1,2,5-thiadiazol-3-yl)-1,2,5,6-tetrahydro-1-methylpyridine oxalate]",7.0 ng/mL
